In PMC10823475, “Design, Synthesis, and Evaluation of Inhibitors of Hedgehog Acyltransferase” (Journal of Medicinal Chemistry, 2024):
Where “and” joins values, the source holds several entries; their conditions need not be identical. Equal entries are not always repeated.

Columns and labels:
purified HHAT = molecular target: T1, purified HHAT (Homo sapiens, UniProt Q5VTY9); assay: Acyl-cLIP assay, inhibition of purified HHAT; format: biochemical; details: for LLEAcyl-cLIP: from Acyl-cLIP IC50 and clogDpH7.4; for IC50: purified HHAT, read-out: Acyl-cLIP Assay IC50 (CI95)
T1 construct: made in house
Method: The inhibitory potency of all 50 compounds against purified HHAT was quantified using the acylation-coupled lipophilic induction of polarization (acyl-cLIP) assay recently developed in our lab, a universally applicable assay for high-throughput analysis of protein–lipid transferases and hydrolases.[31],[40] In brief, in this assay a fluorescently labeled peptide based on the N-terminal sequence of SHH is incubated with N-dodecyl β-D-maltoside (DDM) solubilized purified HHAT, palmitoyl-CoA, and HHAT inhibitors. Binding of the lipidated peptide product to the DDM micelle results in decreased tumbling rate and an increase in polarization of fluorescence emission, enabling facile quantification of HHAT activity. Initially, % HHAT inhibition was determined at 50 μM and 25 μM for all analogues. […] HHAT is a 12-pass TM protein,[14] and we considered whether lipophilicity might bias inhibition; pIC50 values were compared to calculated log D, which indicated no significant correlation (SI, Table S1 and Figure S2). We concluded that lipophilicity is not a general driver of HHAT inhibitory potency.
The acyl-cLIP assay has been described previously.[40] Briefly, SHH-FAM peptide was diluted in buffer A (100 mM MES, 20 mM NaCl, 1 mM DTT, 1 mM TCEP, 0.1% BSA, pH 6.5) to a concentration of 2 μM. Palmitoyl-CoA (Sigma-Aldrich) was diluted in buffer A to 7.5 μM and recombinant HHAT (obtained by following the published protocol[14]) in buffer B (20 mM HEPES, 350 mM NaCl, 1% DDM, 5% glycerol, pH 7.3) diluted to 44 μg/mL. 1.5 μL of a 50 mM inhibitor DMSO stock was diluted with 18.5 μL of DMSO and further serial diluted (1:1). For each condition, 6 μL of the HHAT working stock and […] of the SHH-peptide working stock were mixed with 3 μL of the corresponding inhibitor concentration or DMSO vehicle. Twelve μL/well of this mixture was split into four wells of a black 384 well plate. To start the reaction, 8 μL of the Pal-CoA working stock were added to each well and fluorescence anisotropy and the total fluorescence recorded on an EnVision Xcite 2104 (PerkinElmer) over 30 min (emission filter 1 = FITC FP P-pol 535; emission filter 2 = FITC S-pol 535; excitation filter: FITC FP 480; measurement height = 6.5 mm; detector gain = 0; high concentration gain). Initial rate constants were determined by linear regression and normalized to DMSO control and samples with buffer B instead of HHAT. IC50 values were extracted from the corresponding dose response curves using a “sigmoidal dose response (variable slope)” model in GraphPad Prism 5 (GraphPad Software, Inc.).

[1] = MTS assay, cytotoxicity (72 h); format: cell-based; details: human, HEK293a SHH+ cells, 72 h; for CC50 at 72 h: read-out: MTS Assay (HEK293a SHH+) CC50 (CI95)
Method: (§1) The survival of HEK293a SHH^+ cells is independent of HH signaling,[35] therefore, the cytotoxicity of analogues was tested using the MTS assay to investigate off-target toxicity. In this assay, HEK293a SHH^+ cells were treated with DMSO vehicle or varying concentrations of analogues for 72 h. Subsequently, a mixture of 1-methoxy phenazine methosulfate (PMS) and [3-(4,5-dimethylthiazol-2-yl)-5-(3-carboxymethoxyphenyl)-2-(4-sulfophenyl)-2H-tetrazolium] (MTS) was added to enable quantification of cell number via colorimetric analysis. […] Compounds 3, 17, 19, 32, 34, 38, and 45, which all contain a 2-((2-methylbutyl)amino)acetyl, were toxic to HEK293a SHH^+ cells, as were ureas 26, 40, and 41.
(§2) HEK293a SHH^+ cells were plated at 5000 cells/well in a 96-well plate (Nunc) using a volume of 50 μL/well and cultured for 24 h as described. Cells were treated with 100 μL/well of either DMSO vehicle, Puromycin (2 μg/mL), or stated analogues (0.14–100 μM final) in DMEM supplemented with 10% FBS. After 72 h, 20 μL/well of a mixture of 1-methoxy phenazine methosulfate (PMS) and [3-(4,5-dimethylthiazol-2-yl)-5-(3-carboxymethoxyphenyl)-2-(4-sulfophenyl)-2H-tetrazolium] (MTS) at a ratio of MTS/PMS = 2/0.92 mg/mL in PBS was added and the plates were incubated for 3 h at 37 °C. Subsequently, the absorption at 490 nm was recorded using an EnVision Xcite 2104 (PerkinElmer), and the response was normalized to vehicle control and Puromycin treated samples. Dose response curves were fitted to a “sigmoidal dose response (variable slope)” model using GraphPad Prism 5 (GraphPad Software, Inc.).

HEK293a SHH+ cells = assay: MTS assay, cytotoxicity (72 h); format: cell-based; details: for decrease in cell viability / cell survival: 12.5 μM
Method: as §1, §2

[2] = test system: HH signaling (HEK293a SHH+ conditioned media on SHH-Light2 cells); assay: Light2 dual-luciferase cell-based HH signaling assay (Firefly); details: Firefly luciferase, Light2 cells; read-out: HH signaling inhibition EC50 (CI95)
Method: Subsequently, the effect of analogues on HH signaling was investigated using a cellular luciferase reporter assay. Light2 cells derived from NIH3T3 cells constitutively express Renilla luciferase as an internal control for cell density alongside Firefly luciferase under the control of a HH-responsive Gli promoter.[43] HEK293a SHH^+ cells were incubated with varying inhibitor concentrations and SHH-containing conditioned media transferred to the NIH3T3-Light2 cells to mimic paracrine signaling[30],[35] (Figure 6A).
The Light2 cell-based signaling assay has been described previously.[35] Briefly, HEK293a SHH^+ cells were plated at 120,000 cells/well of a 12-well plate in a volume of 1 mL/well and cultured as described above. After 24 h, cells were washed with PBS, followed by addition of 1 mL of media containing 0.2% DMSO or varying inhibitor concentrations in DMSO (0.041–30 μM final). Additionally, SHH-Light2 cells were plated at 20,000 cells/well of a 96-well plate in 50 μL media. After another 24 h, 300 μL of the conditioned media were collected from each well of the treated HEK293a SHH^+ cells, centrifuged at 1000g for 10 min to remove detached cells and split into three wells of the SHH-Light2 cells (100 μL/well; 150 μL final volume in each well). The treated Light2 cells were cultured for another 48 h and subsequently washed with PBS. Firefly and Renilla luciferase activity was measured using the Dual-Luciferase reporter system (Promega Corporation, USA). Then 20 μL of 1× passive lysis buffer were added to each well. After 30 min at RT, 5 μL of each lysate were transferred to a white opaque 96-well plate. Then 20 μL/well of luciferase assay reagent II was added and the luminescence immediately recorded using a SpectraMax i3x plate reader (Molecular Devices LLC). Subsequently, 20 μL/well of 1× Stop&Glo substrate in Stop&Glo buffer was added and the luminescence immediately recorded for a second time. Data was evaluated using a “sigmoidal dose response (variable slope)” model in GraphPad Prism 5 (GraphPad Software, Inc.). The luminescence signal of the Firefly luciferase was normalized to the DMSO vehicle (100%) and the unconditioned media (0%) controls.

[3] = PAMPA parallel artificial membrane permeability assay; details: PAMPA

T1 sequence (Q5VTY9 whole entry): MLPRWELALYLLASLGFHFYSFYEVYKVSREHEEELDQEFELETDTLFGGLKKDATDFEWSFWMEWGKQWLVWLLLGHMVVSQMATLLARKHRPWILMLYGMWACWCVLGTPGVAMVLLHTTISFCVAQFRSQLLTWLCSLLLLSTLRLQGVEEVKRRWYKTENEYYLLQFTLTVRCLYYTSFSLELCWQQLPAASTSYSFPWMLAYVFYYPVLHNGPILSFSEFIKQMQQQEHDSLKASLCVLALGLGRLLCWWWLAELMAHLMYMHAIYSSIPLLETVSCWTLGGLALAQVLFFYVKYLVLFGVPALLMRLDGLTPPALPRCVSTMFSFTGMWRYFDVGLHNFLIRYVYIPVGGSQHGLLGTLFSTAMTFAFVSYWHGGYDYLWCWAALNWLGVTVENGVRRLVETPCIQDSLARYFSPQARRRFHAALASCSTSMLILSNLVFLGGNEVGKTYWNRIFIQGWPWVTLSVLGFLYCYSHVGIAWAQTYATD

Row | SMILES | inhibition at 25 µM (purified HHAT) [%] | inhibition at 50 µM (purified HHAT) [%] | LLEAcyl-cLIP (purified HHAT) | IC50 (purified HHAT) | CC50 at 72 h [1] [µM] | viability at 72 h, 12.5 µM [1] [%] | viability at 72 h, 25 µM [1] [%] | decrease in cell viability / cell survival (HEK293a SHH+ cells) [%] | EC50 [2] [µM] | recovery at 16 h, 10 µM ([3]; pH 5) [%] | Papp at 16 h, 10 μM ([3]; pH 5, PAMPA Papp pH 5, donor pH 5, 10 µM) [×10⁻⁶ cm/s] | Papp at 16 h, 10 μM ([3]; pH 5, PAMPA Permeability Class pH 5, donor pH 5, 10 µM) [×10⁻⁶ cm/s] | Papp at 16 h, 10 μM ([3]; pH 6.5, PAMPA Papp pH 6.5, donor pH 6.5, 10 µM) [×10⁻⁶ cm/s] | Papp at 16 h, 10 μM ([3]; pH 6.5, PAMPA Permeability Class pH 6.5, donor pH 6.5, 10 µM) [×10⁻⁶ cm/s] | recovery at 16 h, 10 µM ([3]; pH 7.4) [%] | Papp at 16 h, 10 μM ([3]; pH 7.4, PAMPA Papp pH 7.4, donor pH 7.4, 10 µM) [×10⁻⁶ cm/s] | Papp at 16 h, 10 μM ([3]; pH 7.4, PAMPA Permeability Class pH 7.4, donor pH 7.4, 10 µM) [×10⁻⁶ cm/s] | HHAT inhibition in the acyl-cLIP assay (purified HHAT) | toxicity to HEK293a SHH+ cells (HEK293a SHH+ cells) | fold more potent than analogues 19, 32, and 34 (purified HHAT; meta-methyl on 4-position aromatic ring)
1 | CC(=O)N1CCc2sccc2C1c1ccccn1 (stereo not drawn) [Compound 18] | 49 ± 1 | 72 ± 1 | 2.73 | 24 µM and 23.7 µM | > 100 | 97 ± 2 | 98 ± 2 | < 30 |  |  |  |  |  |  |  |  |  |  |  | 
2 | Cc1cccc(C2c3ccsc3CCN2C(=O)CNCCC(C)C)n1 (stereo not drawn) [Compound 25] | 80 ± 5 | 86 ± 4 | 3.90 | 4.62 µM | 15.3 | 74 ± 2 | 27 ± 4 |  | 4.25 |  |  |  |  |  |  |  |  |  |  | 
3 | CC(C)(C)NCC(O)COc1cccc2c1CC(O)C(O)C2 (stereo not drawn) [Nadolol, reference compound] |  |  |  |  |  |  |  |  |  | 97 | < 0.4 | < 5 | < 0.4 | < 5 | 135 | < 0.3 | < 5 |  |  | 
4 | COc1ccccc1C1c2ccsc2CCN1C(C)=O (stereo not drawn) [Compound 31] | 68 ± 4 | 81 ± 2 | 2.21 | 11.9 µM | 16.5 | 60 ± 4 | 23 ± 1 |  | > 30 |  |  |  |  |  |  |  |  |  |  | 
5 | C=CC(=O)N1CCc2sccc2C1c1cccc(C)c1 (stereo not drawn) [Compound 16] | 51 ± 7 | 62 ± 8 | 0.66 | 15 µM | 19.8 | 51 ± 1 | 34 ± 3 |  | 2.96 |  |  |  |  |  |  |  |  |  |  | 
6 | CC(=O)N1CCc2sccc2C1c1cccc(C)n1 (stereo not drawn) [Compound 21] | 72 ± 3 | 82 ± 3 | 2.84 | 13.4 µM | > 100 | 98 ± 4 | 94 ± 3 |  | 5.46 |  |  |  |  |  |  |  |  |  |  | 
7 | COCCNC(=O)N1CCc2ccccc2C1c1ccccc1 (stereo not drawn) [Compound 41, N-(2-Methoxyethyl)-1-phenyl-3,4-dihydroisoquinoline-2(1H)-carboxamide] | 0 | 27 ± 3 |  | > 25 µM | 20.2 | 83 ± 3 | 53 ± 2 |  |  |  |  |  |  |  |  |  |  | inactivity | toxic | 
8 | CCC(C)CNCC(=O)N1CCc2sccc2C1COc1cccc(C)c1 (stereo not drawn) [Compound 3] | 52 ± 3 | 63 ± 4 | 3.16 | 1.44 µM | 8.4 | 31 ± 2 | 12 ± 3 | 69 |  |  |  |  |  |  |  |  |  |  | toxic | 2–5 fold
9 | CCC(C)CNCC(=O)N1CCc2sccc2C1c1ccccc1O (stereo not drawn) [Compound 34, 1-(4-(2-Hydroxyphenyl)-6,7-dihydrothieno[3,2-c]pyridin-5(4H)-yl)-2-((2-methylbutyl)amino)ethan-1-one] | 92 ± 1 | 93 ± 1 | 3.35 |  | 6.1 | 24 ± 1 | 20 ± 1 |  |  |  |  |  |  |  |  |  |  |  | toxic | 
10 | CC(C)CCNC(=O)N1CCc2ccccc2C1c1ccccc1 (stereo not drawn) [Compound 40, N-Isopentyl-1-phenyl-3,4-dihydroisoquinoline-2(1H)-carboxamide] | 0 | 4 ± 5 |  | > 25 µM | 1.8 | 14 ± 4 | 12 ± 3 |  |  |  |  |  |  |  |  |  |  | inactivity | toxic | 
